Columns and labels:
Format in all cases: in vivo
[1] = test system: VIOTR: wild violet (Viola tricolor); test: Post-emergent herbicidal test, wild violet; conditions: post-emergence, 336 h, 14 days after application, read-out: Visual Growth Reduction (%) 14 Days After Application VIOTR; for pest or weed control at 17.5 g/ha: 17.5 g ai/ha; for pest or weed control at 35 g/ha: 35 g ai/ha; for pest or weed control at 70 g/ha: 70 g ai/ha; for pest or weed control at 140 g/ha: 140 g ai/ha
Procedure, shortened: (§1)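 Visual injury rating, 0 (none) to 100% (complete kill), made 14 d after treatment relative to untreated plants. Foliar track-sprayer application at 187 L/ha to plants at the 1st-2nd true leaf stage; rates were twofold serial dilutions from the highest rate down to 1/16×.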

[2] = test system: DIGSA: large crabgrass (Digitaria sanguinalis); test: Post-emergent herbicidal test, large crabgrass; conditions: post-emergence, 336 h, 14 days after application, read-out: Visual Growth Reduction (%) 14 Days After Application DIGSA; for pest or weed control at 17.5 g/ha: 17.5 g ai/ha; for pest or weed control at 35 g/ha: 35 g ai/ha; for pest or weed control at 70 g/ha: 70 g ai/ha; for pest or weed control at 140 g/ha: 140 g ai/ha
Procedure, shortened: as §1

[3] = test system: SORVU: shattercane (Sorghum bicolor); test: Post-emergent herbicidal test, shattercane; conditions: post-emergence, 336 h, 14 days after application, read-out: Visual Growth Reduction (%) 14 Days After Application SORVU; for pest or weed control at 17.5 g/ha: 17.5 g ai/ha; for pest or weed control at 35 g/ha: 35 g ai/ha; for pest or weed control at 70 g/ha: 70 g ai/ha; for pest or weed control at 140 g/ha: 140 g ai/ha
Procedure, shortened: as §1

[4] = test system: SETFA: giant foxtail (Setaria faberi); test: Post-emergent herbicidal test, giant foxtail; conditions: post-emergence, 336 h, 14 days after application, read-out: Visual Growth Reduction (%) 14 Days After Application SETFA; for pest or weed control at 17.5 g/ha: 17.5 g ai/ha; for pest or weed control at 35 g/ha: 35 g ai/ha; for pest or weed control at 70 g/ha: 70 g ai/ha; for pest or weed control at 140 g/ha: 140 g ai/ha
Procedure, shortened: as §1

[5] = test system: IPOHE: ivyleaf morningglory (Ipomoea hederacea); test: Post-emergent herbicidal test, ivyleaf morningglory; conditions: post-emergence, 336 h, 14 days after application, read-out: Visual Growth Reduction (%) 14 Days After Application IPOHE; for pest or weed control at 17.5 g/ha: 17.5 g ai/ha; for pest or weed control at 35 g/ha: 35 g ai/ha; for pest or weed control at 70 g/ha: 70 g ai/ha; for pest or weed control at 140 g/ha: 140 g ai/ha
Procedure, shortened: as §1

[6] = test system: ECHCG: barnyardgrass (Echinochloa crus-galli); test: Post-emergent herbicidal test, barnyardgrass; conditions: post-emergence, 336 h, 14 days after application, read-out: Visual Growth Reduction (%) 14 Days After Application ECHCG; for pest or weed control at 17.5 g/ha: 17.5 g ai/ha; for pest or weed control at 35 g/ha: 35 g ai/ha; for pest or weed control at 70 g/ha: 70 g ai/ha; for pest or weed control at 140 g/ha: 140 g ai/ha
Procedure, shortened: as §1

[7] = test system: EPHHL: wild poinsettia (Euphorbia heterophylla); test: Post-emergent herbicidal test, wild poinsettia; conditions: post-emergence, 336 h, 14 days after application, read-out: Visual Growth Reduction (%) 14 Days After Application EPHHL; for pest or weed control at 17.5 g/ha: 17.5 g ai/ha; for pest or weed control at 35 g/ha: 35 g ai/ha; for pest or weed control at 70 g/ha: 70 g ai/ha; for pest or weed control at 140 g/ha: 140 g ai/ha
Procedure, shortened: as §1

[8] = test system: CYPES: yellow nutsedge (Cyperus esculentus); test: Post-emergent herbicidal test, yellow nutsedge; conditions: post-emergence, 336 h, 14 days after application, read-out: Visual Growth Reduction (%) 14 Days After Application CYPES; for pest or weed control at 17.5 g/ha: 17.5 g ai/ha; for pest or weed control at 35 g/ha: 35 g ai/ha; for pest or weed control at 70 g/ha: 70 g ai/ha; for pest or weed control at 140 g/ha: 140 g ai/ha
Procedure, shortened: as §1

[9] = test system: BRSNN: oilseed rape, canola (Brassica napus); test: Post-emergent herbicidal test, oilseed rape; conditions: post-emergence, 336 h, 14 days after application, read-out: Visual Growth Reduction (%) 14 Days After Application BRSNN; for pest or weed control at 17.5 g/ha: 17.5 g ai/ha; for pest or weed control at 35 g/ha: 35 g ai/ha; for pest or weed control at 70 g/ha: 70 g ai/ha; for pest or weed control at 140 g/ha: 140 g ai/ha
Procedure, shortened: as §1

[10] = test system: CIRAR: Canada thistle (Cirsium arvense); test: Post-emergent herbicidal test, Canada thistle; conditions: post-emergence, 336 h, 14 days after application, read-out: Visual Growth Reduction (%) 14 Days After Application CIRAR; for pest or weed control at 17.5 g/ha: 17.5 g ai/ha; for pest or weed control at 35 g/ha: 35 g ai/ha; for pest or weed control at 70 g/ha: 70 g ai/ha; for pest or weed control at 140 g/ha: 140 g ai/ha
Procedure, shortened: as §1

[11] = test system: ABUTH: velvetleaf (Abutilon theophrasti); test: Post-emergent herbicidal test, velvetleaf; conditions: post-emergence, 336 h, 14 days after application, read-out: Visual Growth Reduction (%) 14 Days After Application ABUTH; for pest or weed control at 17.5 g/ha: 17.5 g ai/ha; for pest or weed control at 35 g/ha: 35 g ai/ha; for pest or weed control at 70 g/ha: 70 g ai/ha; for pest or weed control at 140 g/ha: 140 g ai/ha
Procedure, shortened: as §1

COC(=O)c1nc(-c2ccc(Cl)c3c2OC(F)(F)O3)c(F)c(N)c1Cl [Compound 6]
pest or weed control at 17.5 g/ha [1]: 3% | pest or weed control at 35 g/ha [1]: 12% | pest or weed control at 70 g/ha [1]: 30% | pest or weed control at 140 g/ha [1]: 53% | pest or weed control at 17.5 g/ha [2]: 0% | pest or weed control at 35 g/ha [2]: 0% | pest or weed control at 70 g/ha [2]: 0% | pest or weed control at 140 g/ha [2]: 0% | pest or weed control at 17.5 g/ha [3]: 0% | pest or weed control at 35 g/ha [3]: 2% | pest or weed control at 70 g/ha [3]: 10% | pest or weed control at 140 g/ha [3]: 23% | pest or weed control at 17.5 g/ha [4]: 0% | pest or weed control at 35 g/ha [4]: 0% | pest or weed control at 70 g/ha [4]: 0% | pest or weed control at 140 g/ha [4]: 3% | pest or weed control at 17.5 g/ha [5]: 0% | pest or weed control at 35 g/ha [5]: 3% | pest or weed control at 70 g/ha [5]: 3% | pest or weed control at 140 g/ha [5]: 10% | pest or weed control at 17.5 g/ha [6]: 0% | pest or weed control at 35 g/ha [6]: 0% | pest or weed control at 70 g/ha [6]: 3% | pest or weed control at 140 g/ha [6]: 3% | pest or weed control at 17.5 g/ha [7]: 2% | pest or weed control at 35 g/ha [7]: 0% | pest or weed control at 70 g/ha [7]: 2% | pest or weed control at 140 g/ha [7]: 7% | pest or weed control at 17.5 g/ha [8]: 30% | pest or weed control at 35 g/ha [8]: 25% | pest or weed control at 70 g/ha [8]: 25% | pest or weed control at 140 g/ha [8]: 60% | pest or weed control at 17.5 g/ha [9]: 80% | pest or weed control at 35 g/ha [9]: 82% | pest or weed control at 70 g/ha [9]: 92% | pest or weed control at 140 g/ha [9]: 97% | pest or weed control at 17.5 g/ha [10]: 70% | pest or weed control at 35 g/ha [10]: 77% | pest or weed control at 70 g/ha [10]: 85% | pest or weed control at 140 g/ha [10]: 88% | pest or weed control at 17.5 g/ha [11]: 75% | pest or weed control at 35 g/ha [11]: 77% | pest or weed control at 70 g/ha [11]: 80% | pest or weed control at 140 g/ha [11]: 83%

Nc1c(F)c(-c2ccc(Br)c3c2OC(F)(F)O3)nc(C(=O)O)c1Cl [Compound 11]
pest or weed control at 17.5 g/ha [1]: 0% | pest or weed control at 35 g/ha [1]: 0% | pest or weed control at 70 g/ha [1]: 0% | pest or weed control at 140 g/ha [1]: 20% | pest or weed control at 17.5 g/ha [2]: 0% | pest or weed control at 35 g/ha [2]: 0% | pest or weed control at 70 g/ha [2]: 0% | pest or weed control at 140 g/ha [2]: 0% | pest or weed control at 17.5 g/ha [3]: 0% | pest or weed control at 35 g/ha [3]: 0% | pest or weed control at 70 g/ha [3]: 0% | pest or weed control at 140 g/ha [3]: 10% | pest or weed control at 17.5 g/ha [4]: 0% | pest or weed control at 35 g/ha [4]: 0% | pest or weed control at 70 g/ha [4]: 0% | pest or weed control at 140 g/ha [4]: 0% | pest or weed control at 17.5 g/ha [5]: 0% | pest or weed control at 35 g/ha [5]: 0% | pest or weed control at 70 g/ha [5]: 0% | pest or weed control at 140 g/ha [5]: 0% | pest or weed control at 17.5 g/ha [6]: 0% | pest or weed control at 35 g/ha [6]: 0% | pest or weed control at 70 g/ha [6]: 0% | pest or weed control at 140 g/ha [6]: 0% | pest or weed control at 17.5 g/ha [7]: 0% | pest or weed control at 35 g/ha [7]: 0% | pest or weed control at 70 g/ha [7]: 0% | pest or weed control at 140 g/ha [7]: 0% | pest or weed control at 17.5 g/ha [8]: 0% | pest or weed control at 35 g/ha [8]: 0% | pest or weed control at 70 g/ha [8]: 0% | pest or weed control at 140 g/ha [8]: 0% | pest or weed control at 17.5 g/ha [9]: 90% | pest or weed control at 35 g/ha [9]: 90% | pest or weed control at 70 g/ha [9]: 90% | pest or weed control at 140 g/ha [9]: 90% | pest or weed control at 17.5 g/ha [10]: 80% | pest or weed control at 35 g/ha [10]: 85% | pest or weed control at 70 g/ha [10]: 90% | pest or weed control at 140 g/ha [10]: 90% | pest or weed control at 17.5 g/ha [11]: 50% | pest or weed control at 35 g/ha [11]: 70% | pest or weed control at 70 g/ha [11]: 80% | pest or weed control at 140 g/ha [11]: 85%

From US11718604B2, “4-amino-6-(1,3-benzodioxole)picolinates and their use as herbicides” (Dow AgroSciences LLC, priority 2018, dated 2023)
